How the values were obtained:
[1] = test system: HUVEC cells; experiment: Migration assay, HUVEC cells; format: cell-based, human; settings: 400 nM particles, 24 hour, before and after addition of inhibitor
Method: M21 cells: M21 cells were seeded (6×10^4 cells/well) using a migration kit (Oris™ Collagen I coated plate, […] TEC). Twenty-four hours after seeding the cells, stoppers in the plate were removed. Fresh culture media (100 μl) supplemented with 0.2% FBS was introduced and cRGDY-PEG-C-dots were added at several concentrations: 25, 100 and 400 nM. Every 24 hours thereafter, media was replaced, along with new particles, over a 72 hr time interval. Prior to incubating the plate at 37° C. overnight, time zero images were captured by the Axiovert 200M microscope (Carl Zeiss) using a 5× (0.15 NA) objective and using a scan slide module in the Metamorph software (molecular devices, PA). Serial microscopy was then performed and images captured every 24 hrs for a total of 96 hours post-incubation. The data were analyzed by using ImageJ software. […]
Phase contrast images captured for migration studies were analyzed using ImageJ 1.45s (National Institutes of Health, rsbweb.nih.gov/ij/) in order to quantify the extent of cell migration (i.e., area closure) for M21 cells and HUVECs. […] The enclosed area for each image was measured (pixels) and used to calculate percent closure relative to time zero (following particle addition and media replacement) as follows: difference in area at a given time point (24, 48, 72 or 96 hr) and at time zero divided by the same area at time zero multiplied by 100. […]

[2] = test system: FAK pathway; experiment: Western blot of FAK pathway signaling in M21 cells; format: cell-based, human; settings: M21 cells exposed to 100 nM cRGDY-PEG-C dots
Method: To determine whether […] integrin-binding cRGDY-PEG-C-dots modulates the activity of these pathways, we treated serum-deprived (0.2% FCS) M21 cells with 100 nM of cRGDY-PEG-C-dots for 2 hrs at 37° C.; serum-deprived cells treated with 0.2% FCS alone served as controls. […] These findings, depicted graphically as normalized intensity ratios, have been expressed relative to their respective total protein levels, and normalized to corresponding values measured under control conditions (FIG. 40C).
M21 cells (1×10^6 cells/six wells plate) were grown in six wells coated with collagen (10 mg/ml), and made quiescent by growing under serum-deprived conditions. The medium was then changed to 0.2% FCS, and different concentrations (25-400 nM) of cRGDY-PEG-C-dots were added (37° C., 0.5-8 hours). […] Protein concentrations were determined by the bicinchoninic acid assay (BCA, Thermo Scientific, Rockford, Ill.). […]
In order to quantify the differences in the size and intensity between Western blot bands, we performed densitometry of phosphorylated and total protein intermediates using Photoshop CS2 (Adobe, San Jose, Calif.). […]

[3] = test system: melanoma nodal metastases; design: species or system Sinclair miniature swine; settings: in vivo
Method: Spontaneous melanoma Sinclair miniature swine (10-12 kg, Sinclair Research Center, MO) were injected intravenously with 5 mCi ^18F-fluoro-deoxyglucose (^18F-FDG) for whole-body screening of nodal and/or organ metastases. Miniswine underwent 1-hr dynamic ^18F-FDG PET whole body PET scan using a clinical PET scanner 40 minutes after injection to screen for metastatic disease, followed by CT scan acquisition for anatomic localization. […]
Miniswine were taken to the operating room for identification of nodes. Optical fluorescence imaging was performed using large field-of-view near infrared fluorescence camera system, smaller field-of-view modified endoscope, and a modified stereomacroscope for obtaining higher resolution fluorescence images within the exposed surgical bed. […]
The primary melanoma skin lesion was excised, and an incision made to allow access to the sentinel node(s). […] Specimens were sent for histological assessment for metastases and optical confocal microscopy to confirm the presence of both malignancy and nanoparticle fluorescence.
Following harvest of the sentinel nodes, the entire lymph node basin was excised and further evaluated using histological methods (with immunohistochemical markers for melanoma as needed), fluorescence microscopy, and the hand-held PET probe for correlative purposes. […]

[4] = Montet et al. 2006; cited from earlier work

CS(=O)(=O)c1cccc(CNc2nc(Nc3ccc4c(c3)CCC(=O)N4)ncc2C(F)(F)F)c1 [PF-573228]
Percentage change in mean areas of closure relative to controls [1]: +3%
Inhibition of MEK or Erk phosphorylation ([2]; 250, 500 nM inhibitor): observed only at the higher inhibitor concentration
phosphorylation of FAK on Tyr397 and Src ([2]; two inhibitor concentrations (250, 500 nM)): inhibition of the phosphorylation of FAK on Tyr^397 and Src

^18F-fluorodeoxyglucose [^18F-FDG]
discrimination of metastatic disease from inflammation [3]: failed to detect metastatic disease, while identifying inflammatory and other metabolically active sites

cRGD
published blood T1/2 / blood residence half-time [4]: about 13 minutes

Source: patent US11419955B2, “Multimodal silica-based nanoparticles” (Sloan-Kettering Institute for Cancer Research, priority 2009, dated 2022)
